# Measured values published in publication PMC12281424, “A Rac-specific competitive inhibitor of guanine nucleotide binding reduces metastasis in triple-negative breast cancer” (Cell Reports Medicine, 2025).
# Tests used:
# [1] = molecular target: SRMS(h) (Homo sapiens, UniProt Q9H3Y6); test: Kinase Profiler; type: biochemical
# Procedure: (§1) The kinase profiler was performed by the company Eurofins (Discovery, Panlab and Cerep).
# [2] = molecular target: TSSK4(h) (Homo sapiens, UniProt Q6SA08); test: Kinase Profiler; type: biochemical
# Procedure: as §1
# [3] = test system: Protein Ser/Thr Kinase, PKC, Non- Selective; test: Safety screen; type: biochemical, rat
# Procedure: as §1
# [4] = test system: RAC1-GTP levels in MDA-MB-468 Luc cells; test: RAC-GTP immunofluorescence; type: cell-based
# Procedure: Luciferase (Luc, green) was used to detect the cells. […] (C) Quantification of colony number of indicated cancer cell lines in the presence of A41 (10 μM) expressed as the percentage of control in the absence of A41. […] (D) Immunoblot analysis and corresponding quantification of AKT and P44/42 expression and phosphorylation (pAKT, p44/42) in MDA-MB-468 Luc cells in the absence (−) and presence of NSC23766 or A41 (1 h at 10^−5 M). […] (E) 3D invasion assay of MDA-MB-468 Luc and cancer-associated fibroblasts (CAFs) and corresponding quantification (scale bars: 200 μm).
# After indicated treatments, cells were fixed with 4% paraformaldehyde and permeabilized in PBS 0.5% Triton X-100. To assess RAC1 activity, cells were then incubated with RAC-GTP antibody (26903, NewEast Biosciences, King of Prussia, Pa) (dilution 1/500) overnight at room temperature, followed by secondary Alexa 568-labeled anti-mouse antibody (dilution 1/1000). Cancer cells were detected with firefly luciferase antibody (ab21176, Abcam) (dilution 1/500) overnight at room temperature, followed by secondary Alexa 488-labeled anti-rabbit antibody (dilution 1/1000). To assess cytoskeleton organization, cells were incubated with Alexa Fluor 488 phalloidin (A12379, Invitrogen) to visualize F-actin. After staining, cells were mounted in Prolong gold antifade reagent with DAPI and images were captured by a fluorescence microscope.
# [5] = molecular target: CaMKIγ(h) (Homo sapiens, UniProt Q96NX5); test: Kinase Profiler; type: biochemical
# Chain of CaMKIγ(h) (Q96NX5 whole entry): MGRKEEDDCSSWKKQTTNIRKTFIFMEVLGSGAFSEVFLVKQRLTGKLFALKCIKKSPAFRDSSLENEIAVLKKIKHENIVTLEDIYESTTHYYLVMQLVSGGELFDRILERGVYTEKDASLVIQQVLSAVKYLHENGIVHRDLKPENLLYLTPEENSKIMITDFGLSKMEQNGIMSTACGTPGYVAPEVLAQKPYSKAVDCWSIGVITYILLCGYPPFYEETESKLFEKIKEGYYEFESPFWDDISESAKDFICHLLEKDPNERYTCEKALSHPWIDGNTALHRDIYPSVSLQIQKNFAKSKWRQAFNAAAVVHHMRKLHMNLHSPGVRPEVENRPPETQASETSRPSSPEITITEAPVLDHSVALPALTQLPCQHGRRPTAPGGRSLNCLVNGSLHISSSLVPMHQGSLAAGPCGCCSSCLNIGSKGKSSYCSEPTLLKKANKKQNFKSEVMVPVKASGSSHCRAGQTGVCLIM
# Procedure: as §1
# [6] = molecular target: ROCK-I(h) (Homo sapiens, UniProt Q13464); test: Kinase Profiler; type: biochemical
# Procedure: (§2) Blood cell counts, kinase profiler, safety screen, bacterial cytotoxicity, Ames, micronucleus assays were performed by the company Eurofins (France). The kinase profiler was performed by the company Eurofins (Discovery, Panlab and Cerep).
# [7] = molecular target: MEK1(h) (Homo sapiens, UniProt Q02750); test: Kinase Profiler; type: biochemical
# Procedure: as §1
# [8] = molecular target: ATPase, Na+/K+, Heart, Pig (Sus scrofa, UniProt P05024); test: Safety screen; type: biochemical
# Procedure: as §2
# [9] = molecular target: ZAP-70(h) (Homo sapiens, UniProt P43403); test: Kinase Profiler; type: biochemical
# Procedure: as §1
# [10] = molecular target: ZAK(h) (Homo sapiens, UniProt Q9NYL2); test: Kinase Profiler; type: biochemical
# Chain of ZAK(h) (Q9NYL2 whole entry): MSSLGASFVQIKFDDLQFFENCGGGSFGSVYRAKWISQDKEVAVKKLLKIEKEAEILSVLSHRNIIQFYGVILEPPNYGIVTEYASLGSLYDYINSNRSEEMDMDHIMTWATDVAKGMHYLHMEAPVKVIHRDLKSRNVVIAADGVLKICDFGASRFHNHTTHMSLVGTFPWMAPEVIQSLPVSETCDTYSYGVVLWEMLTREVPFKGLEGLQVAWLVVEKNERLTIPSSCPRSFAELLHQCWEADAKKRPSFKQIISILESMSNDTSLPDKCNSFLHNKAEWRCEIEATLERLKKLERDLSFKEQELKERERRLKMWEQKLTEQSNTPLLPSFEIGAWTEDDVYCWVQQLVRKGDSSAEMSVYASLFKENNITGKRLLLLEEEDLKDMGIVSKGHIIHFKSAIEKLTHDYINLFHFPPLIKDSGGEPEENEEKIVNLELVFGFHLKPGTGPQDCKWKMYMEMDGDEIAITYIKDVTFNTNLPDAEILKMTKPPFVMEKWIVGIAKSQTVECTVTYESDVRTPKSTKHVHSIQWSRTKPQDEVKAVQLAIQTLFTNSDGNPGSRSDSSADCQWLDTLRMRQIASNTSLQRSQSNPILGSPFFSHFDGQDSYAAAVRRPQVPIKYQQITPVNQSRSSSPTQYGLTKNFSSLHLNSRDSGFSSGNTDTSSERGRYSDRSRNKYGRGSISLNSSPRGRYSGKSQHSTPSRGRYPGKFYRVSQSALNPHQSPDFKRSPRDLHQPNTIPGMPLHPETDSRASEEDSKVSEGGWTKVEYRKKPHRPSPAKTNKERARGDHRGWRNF
# Procedure: as §1
# [11] = molecular target: MYLK2(h) (Homo sapiens, UniProt Q9H1R3); test: Kinase Profiler; type: biochemical
# Chain of MYLK2(h) (Q9H1R3 whole entry): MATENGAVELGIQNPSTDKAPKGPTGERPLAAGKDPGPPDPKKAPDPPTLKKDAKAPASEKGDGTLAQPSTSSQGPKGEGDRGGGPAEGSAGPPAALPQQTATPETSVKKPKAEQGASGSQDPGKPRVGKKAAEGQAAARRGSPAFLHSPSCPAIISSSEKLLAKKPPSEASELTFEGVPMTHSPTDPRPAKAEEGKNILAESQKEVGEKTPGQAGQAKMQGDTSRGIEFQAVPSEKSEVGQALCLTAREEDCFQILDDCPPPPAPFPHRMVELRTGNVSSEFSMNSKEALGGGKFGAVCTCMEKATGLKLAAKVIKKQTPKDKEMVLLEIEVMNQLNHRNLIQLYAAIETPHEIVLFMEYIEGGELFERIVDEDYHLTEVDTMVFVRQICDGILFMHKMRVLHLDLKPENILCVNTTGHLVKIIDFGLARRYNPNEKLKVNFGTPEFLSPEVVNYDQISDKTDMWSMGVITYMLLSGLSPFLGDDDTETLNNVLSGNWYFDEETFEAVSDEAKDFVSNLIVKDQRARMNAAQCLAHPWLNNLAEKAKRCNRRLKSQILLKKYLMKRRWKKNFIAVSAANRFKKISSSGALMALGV
# Procedure: as §1
# [12] = test system: Sodium Channel, Site 2; test: Safety screen; type: binding, rat
# Procedure: (§3) Blood cell counts, kinase profiler, safety screen, bacterial cytotoxicity, Ames, micronucleus assays were performed by the company Eurofins (France).
# [13] = test system: Phosphodiesterase PDE4; test: Safety screen; type: biochemical, human
# Procedure: as §3
# [14] = molecular target: Androgen (Testosterone) (Homo sapiens, UniProt P10275); test: Safety screen; type: binding
# Chain of Androgen (Testosterone) (P10275 whole entry): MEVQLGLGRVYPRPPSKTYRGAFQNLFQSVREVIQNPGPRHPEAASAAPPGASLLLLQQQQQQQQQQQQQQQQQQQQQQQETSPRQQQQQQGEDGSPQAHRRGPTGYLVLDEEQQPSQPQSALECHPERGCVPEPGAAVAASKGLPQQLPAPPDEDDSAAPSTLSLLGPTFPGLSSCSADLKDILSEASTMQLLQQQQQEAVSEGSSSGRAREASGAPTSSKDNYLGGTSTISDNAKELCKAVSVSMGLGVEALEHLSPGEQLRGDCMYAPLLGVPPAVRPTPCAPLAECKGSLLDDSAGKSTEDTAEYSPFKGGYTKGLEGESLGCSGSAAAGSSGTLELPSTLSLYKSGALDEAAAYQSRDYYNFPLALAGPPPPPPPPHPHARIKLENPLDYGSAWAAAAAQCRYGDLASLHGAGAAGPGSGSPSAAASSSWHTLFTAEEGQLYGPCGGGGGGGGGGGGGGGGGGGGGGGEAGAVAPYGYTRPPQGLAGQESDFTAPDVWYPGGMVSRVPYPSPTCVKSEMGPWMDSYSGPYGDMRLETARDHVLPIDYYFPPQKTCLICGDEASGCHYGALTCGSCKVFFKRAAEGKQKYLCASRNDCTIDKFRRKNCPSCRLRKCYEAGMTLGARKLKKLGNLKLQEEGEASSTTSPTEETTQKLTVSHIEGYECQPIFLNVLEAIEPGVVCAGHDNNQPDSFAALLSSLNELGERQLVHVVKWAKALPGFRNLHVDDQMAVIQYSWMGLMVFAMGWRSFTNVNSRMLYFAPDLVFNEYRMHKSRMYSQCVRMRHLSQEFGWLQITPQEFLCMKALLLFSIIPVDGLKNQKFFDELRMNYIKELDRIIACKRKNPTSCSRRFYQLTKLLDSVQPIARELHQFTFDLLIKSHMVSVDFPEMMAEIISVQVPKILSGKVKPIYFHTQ
# Procedure: as §2
# [15] = molecular target: CDK6/cyclinD3(h) (Homo sapiens, UniProt Q00534); test: Kinase Profiler; type: biochemical
# Procedure: as §2
# [16] = molecular target: PKBγ(h) (Homo sapiens, UniProt Q9Y243); test: Kinase Profiler; type: biochemical
# Procedure: as §1
# [17] = test system: NIH/3T3 cell migration; test: 1D cell migration (CYTOO plates); type: cell-based; conditions: 10^-5 M
# Procedure: NIH3T3cells (1000/well) were seeded in a 96 well plate with […] fibronectin stripes (CytooPlates Motility, CYTOO) in medium with 1% SVF and allowed to spread for 4 h before capturing time-lapse images for 24 h (image/10 min) on a Widefield Leica DMI 6000B drove with Metamorph software. Cells speed was measured with ImageJ software.
# Supplementary Fig. 3: Example of one pharmacophore model used for virtual screening. (a) The pharmacophore model shown was created based on RAC1 (grey) and NSC23766 (orange) interaction. The pharmacophore model is formed by two hydrogenbond acceptor(HBA)features,one orientedtowardsthe hydroxylgroup of Ser71 (S71) and the other towards the amine group of Gln74 (Q74), one hydrogen bond donor (HBD) feature pointed to the oxygenatom of Leu70 (L70) and two hydrophobic features (HY) located on certain carbon atoms of NSC23766 and facing residues Val36 (V36), Ala59 (A59), Tyr64 (Y64) and Leu67 (L67). The spheres correspond to locationconstraint. […] (b) Impact of different screening molecules (10^-5 M) on NIH/3T3 cell adhesion (xCELLingence Real-time cellanalysis, Agilent), migration (CYTOO Mobility plates) and proliferation (xCELLingence Real-time cell analysis, Agilent) .The level of RAC activation is determinedby the detection of RAC-GTP (pull-down assay) in NIH/3T3 cell treated with EGF (10 ng/mL) and the differentmolecules and normalize to the level of RAC activity measuredin the presenceof the reference RAC inhibitor EHT1864.
# Supplementary Fig. 4: A41 inhibits RAC-dependent cell functions. (a) Representative records of single NIH/3T3 cell migration on micropatterned fibronectin lines (CYTOO Mobility plates) in the absence (Control)and presenceA41 at 10^-5 M (left panel) and corresponding quantification of migration speed (right panel) (scale bar: 20µm). […] (b) Typical curves showing the cell index representing the adhesion of NIH/3T3 fibroblast (xCELLingence Real-time cell analysis, Agilent) under control condition (Control) and pre-treated with 10 µM A41 or NSC23766 (left panel) and corresponding quantification of cell adhesion speed (right panel). […]
# [18] = molecular target: BTK(R28H)(h) (Homo sapiens, UniProt Q06187, R28H); test: Kinase Profiler; type: biochemical
# Procedure: as §2
# [19] = molecular target: PI3K e (p110a/p65a)(h) (Homo sapiens, UniProt P42336); test: Kinase Profiler; type: biochemical
# Chain of PI3K e (p110a/p65a)(h) (P42336 whole entry): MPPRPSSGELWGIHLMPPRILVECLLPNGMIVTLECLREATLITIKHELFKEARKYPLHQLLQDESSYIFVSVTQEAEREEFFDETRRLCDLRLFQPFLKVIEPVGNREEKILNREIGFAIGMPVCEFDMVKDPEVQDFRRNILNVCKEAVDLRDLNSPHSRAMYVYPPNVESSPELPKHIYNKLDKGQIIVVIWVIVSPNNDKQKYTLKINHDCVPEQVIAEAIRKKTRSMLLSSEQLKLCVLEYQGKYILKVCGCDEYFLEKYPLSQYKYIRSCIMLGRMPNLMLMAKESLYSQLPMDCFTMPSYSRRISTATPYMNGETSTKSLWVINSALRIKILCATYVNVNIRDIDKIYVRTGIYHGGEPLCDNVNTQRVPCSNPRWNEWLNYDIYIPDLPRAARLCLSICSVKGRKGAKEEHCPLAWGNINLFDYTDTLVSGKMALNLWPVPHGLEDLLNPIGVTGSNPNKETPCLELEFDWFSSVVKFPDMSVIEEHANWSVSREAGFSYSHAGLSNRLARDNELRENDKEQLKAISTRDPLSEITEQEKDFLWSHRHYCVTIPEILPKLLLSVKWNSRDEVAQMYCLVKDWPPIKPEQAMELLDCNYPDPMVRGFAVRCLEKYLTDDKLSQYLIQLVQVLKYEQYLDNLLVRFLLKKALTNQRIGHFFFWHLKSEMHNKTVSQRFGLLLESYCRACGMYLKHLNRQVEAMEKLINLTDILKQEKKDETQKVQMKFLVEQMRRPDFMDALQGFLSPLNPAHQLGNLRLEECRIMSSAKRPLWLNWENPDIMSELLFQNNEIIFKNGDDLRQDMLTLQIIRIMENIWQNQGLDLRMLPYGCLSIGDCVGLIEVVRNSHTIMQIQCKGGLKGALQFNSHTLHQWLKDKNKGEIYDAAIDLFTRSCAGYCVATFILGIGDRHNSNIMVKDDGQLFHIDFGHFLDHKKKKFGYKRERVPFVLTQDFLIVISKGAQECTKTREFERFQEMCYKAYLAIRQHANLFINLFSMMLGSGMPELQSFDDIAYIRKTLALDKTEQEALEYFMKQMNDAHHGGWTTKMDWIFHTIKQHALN
# Chain of PI3K e (p110a/p65a)(h) (P27986 1-571 partner limits assumed): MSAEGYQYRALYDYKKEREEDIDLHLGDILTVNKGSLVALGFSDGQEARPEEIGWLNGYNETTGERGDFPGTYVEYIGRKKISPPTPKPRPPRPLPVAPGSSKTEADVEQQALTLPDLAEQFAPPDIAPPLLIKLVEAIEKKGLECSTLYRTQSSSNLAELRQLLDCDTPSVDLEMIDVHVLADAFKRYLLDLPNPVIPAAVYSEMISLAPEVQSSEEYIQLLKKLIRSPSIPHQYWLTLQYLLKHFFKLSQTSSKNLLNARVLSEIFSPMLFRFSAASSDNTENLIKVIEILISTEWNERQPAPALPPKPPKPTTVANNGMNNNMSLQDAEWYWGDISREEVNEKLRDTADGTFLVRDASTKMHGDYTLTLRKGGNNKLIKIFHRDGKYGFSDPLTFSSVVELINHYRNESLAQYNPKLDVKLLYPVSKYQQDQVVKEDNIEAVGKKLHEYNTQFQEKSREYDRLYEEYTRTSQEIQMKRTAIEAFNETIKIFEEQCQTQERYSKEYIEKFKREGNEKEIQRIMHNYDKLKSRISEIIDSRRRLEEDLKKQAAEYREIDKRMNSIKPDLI
# Procedure: as §1
# Chain of SRMS(h) (Q9H3Y6 whole entry): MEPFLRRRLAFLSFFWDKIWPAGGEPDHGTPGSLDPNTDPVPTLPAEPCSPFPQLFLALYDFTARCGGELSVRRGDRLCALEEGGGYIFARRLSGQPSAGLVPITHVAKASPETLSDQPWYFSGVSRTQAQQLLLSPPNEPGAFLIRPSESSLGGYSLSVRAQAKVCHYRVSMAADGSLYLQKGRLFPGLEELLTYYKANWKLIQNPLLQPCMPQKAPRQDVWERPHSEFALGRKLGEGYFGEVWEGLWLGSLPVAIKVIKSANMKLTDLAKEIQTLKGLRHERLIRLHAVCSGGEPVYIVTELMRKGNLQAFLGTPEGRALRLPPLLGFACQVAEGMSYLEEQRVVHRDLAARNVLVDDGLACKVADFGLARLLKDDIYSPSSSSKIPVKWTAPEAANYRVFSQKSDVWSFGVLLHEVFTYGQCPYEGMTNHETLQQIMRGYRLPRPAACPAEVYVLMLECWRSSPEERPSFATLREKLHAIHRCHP
structure (smiles),measurement,setting,value
COc1ccc(OC)c(NS(=O)(=O)c2ccc(NC(=O)CCSc3ccc(C)cc3)cc2)c1 [Compound A41],Activity(%),[1],102%
same,Activity(%),[2],103%
same,% inh.,[3],48%
same,decrease of active RAC1-GTP levels,"[4]; 10^-5 M, 1 h",more than 50%
same,IC50,"[4]; dose-response curve, Figure 5A",810 nM
same,Activity(%),[5],121%
same,Activity(%),[6],101%
same,Activity(%),[7],97%
same,% inh.,[8],-15%
same,Activity(%),[9],108%
same,Activity(%),[10],109%
same,Activity(%),[11],103%
same,% inh.,[12],57%
same,% inh.,[13],4%
same,% inh.,[14],10%
same,Activity(%),[15],111%
same,Activity(%),[16],98%
same,cell migration,[17],efficiently inhibited both functions
same,Activity(%),[18],102%
same,Activity(%),[19],102%
